According to patent US20260263555A1, “ANNEXIN A1 DELAYED DOSING” (Reso Ther Pharma A/S, priority 2023, published 2026):
“Also recorded” adds a separate entry of the source. No end group written: not given here.

Columns and labels:
[1] = tested on: rat model of acute myocardial infarction; test: Delayed Annexin A1 peptide dosing in a rat model of acute myocardial infarction (30 minutes ischemia, 24 hours reperfusion; Evans blue/TTC infarct size); type: in vivo, Sprague Dawley rats; conditions: vs vehicle
Experimental: Myocardial infarction was induced by 30 minutes ischemia via obstruction of coronary perfusion by occlusion of the left coronary artery followed by 24 hours reperfusion. Sprague Dawley rats were treated by administration with Peptide 1 (30 ug/kg) three times with treatment initiation either at the time of reperfusion (T0 h, T3 h, T6 h) (Group 1), or with a delayed treatment initiation starting either at 1 hour post establishment of reperfusion (T1 h, T4 h, T7 h) (Group 2), or at 2 hours post establishment of reperfusion (T2 h, T5 h, T8 h) (Group 3).
At the end of 24 hours reperfusion period, the left coronary artery was reoccluded and Evans blue dye solution injected. Hearts were excised from the rat and stored at −20° C. before being sliced into 1 mm thick transverse sections. Heart sections were incubated with triphenyltetrazolium chloride (TTC, 1%) at 37° C. for 30 minutes to demarcate the viable and nonviable myocardium within the risk zone. Area at risk and infarcted area were determined using image software.

[2] = tested on: recruitment of neutrophils to the site of injury/inflammation; conditions: models of myocardial I/R, mesentery I/R, glycogen peritonitis and IL1 air pouch; cited from earlier work

## AMVSEFLKQAWFIENEEQEYVQTLKSSKGGPGSAVSPYPTFNPSSDV (AMVSEFLKQAWFIENEEQEYVQTLKSSKGGPGSAVSPYPTFNPSSDV-NH2; ends and bridges not checked) [Peptide 1]
[1]; Group 1: 30 ug/kg three times (T0 h, T3 h, T6 h), first dosage at establishment of reperfusion
  infarct size: significantly reduced infarct size
[1]; Group 2: 30 ug/kg three times (T1 h, T4 h, T7 h), first dosage 1 hour post establishment of reperfusion
  infarct size: reduced infarct size to a similar degree; also recorded: significantly reduced infarct size
[1]; Group 3: 30 ug/kg three times (T2 h, T5 h, T8 h), first dosage 2 hours post establishment of reperfusion
  infarct size: reduced infarct size to a similar degree; also recorded: significantly reduced infarct size

## Ac2-26: Annexin A1 peptide which mimics the 2nd to the 26th amino acids of the 54-amino acid N-terminal region (Ac-AMVSEFLKQAWFIENEEQEYVQTVK; UniProt P04083 2-26, looked up, fragment)
[2]
  recruitment of neutrophils to the site of injury/inflammation: significantly reduce the recruitment of neutrophils
